From patent US20230346678A1, “TOPICAL COMPOSITIONS CONTAINING VITAMIN C” (priority 2022, published 2023)

Assay: Oxygen radical absorbance capacity (ORAC) assay
Format: biochemical
Method: The combined anti-oxidant effects of combinations of ascorbic acid with various other known anti-oxidants was tested using the oxygen radical absorbance capacity (ORAC) assay according to the method described by Ou B, Hampsch Woodill M, Prior R. L. Development and validation of an improved oxygen radical absorbance capacity assay using fluorescein as the fluorescent probe. J Agric Food Chem. 2001, 49:4619 (using a slightly different ex/em wavelength readout and a narrower range of Trolox standards). This assay measures the ability of anti-oxidant “chain breakers” to inhibit the decline in disodium fluorescein (FL) fluorescence that is induced by the peroxyl radical generator, 2′,2′-Azobis (2-amidinopropane) dihydrochloride (AAPH). Distilled water was used as the negative control. Trolox (6-hydroxy-2,5,7,8-tetramethylchroman-2-carboxylic acid, a water-soluble analog of vitamin E sold by Hoffman-LaRoche having antioxidant properties) was used as the positive control.
The final ORAC values were calculated from the regression equation of net areas under the FL decay curve using a formula where Area Under the Curve (AUC)=1+(Point 1+Point 2+Point 3+ . . . +Point 15)/Point 1. The Trolox standards were then plotted as micromoles over AUC. The samples were solved using their AUC yielding the values in micromole (μmol) Trolox equivalent (TE) per ml. Applied BioSystems Cytofluor 4000 fluorometer & software was used for quantification. ORAC values of the test materials were expressed in μmoles TE/ml (TE=Trolox Equivalents).
All ingredients were stored at room temperature and then diluted with distilled water into aqueous stock solutions for testing. Further dilutions were made in distilled water within 24 h from testing.

[1] = second test run (second Table 3)

SMILES: O=C(O[C@@H]1Cc2c(O)cc(O)cc2O[C@@H]1c1cc(O)c(O)c(O)c1)c1cc(O)c(O)c(O)c1 [0.1% EGCG, epigallocatechin gallate]
- ORAC (first test run (first Table 3)): 7 μmoles TE/ml

SMILES: CCOC1=C(O)C(=O)O[C@@H]1[C@@H](O)CO [0.5% Ethyl L-Ascorbic Acid, Ethyl L-Ascorbic Acid]
- ORAC (first test run (first Table 3)): 13 μmoles TE/ml
- ORAC [1]: 7 μmoles TE/ml

SMILES: COc1cc(CCC(=O)CC(=O)CCc2ccc(O)c(OC)c2)ccc1O [0.5% Tetrahydrodiferuloyl-methane, Tetrahydrodiferuloyl-methane]
- ORAC (first test run (first Table 3)): 4 μmoles TE/ml

SMILES: O=C1O[C@H]([C@@H](O)CO)C([O-])=C1OP(=O)([O-])[O-].[Na+].[Na+].[Na+] [0.5% sodium ascorbyl phosphate, sodium ascorbyl phosphate]
- ORAC (first test run (first Table 3)): 10 μmoles TE/ml

SMILES: Cn1c(=O)c2c(ncn2C)n(C)c1=O [2% caffeine, caffeine]
- ORAC (first test run (first Table 3)): 10 μmoles TE/ml
- ORAC [1]: 0 μmoles TE/ml

SMILES: O=C1O[C@H]([C@@H](O)CO)C(O)=C1O [10% ascorbic acid, ascorbic acid]
- ORAC (first test run (first Table 3)): 751 μmoles TE/ml
- ORAC [1]: 838 μmoles TE/ml

SMILES: Cc1c(C)c2c(c(C)c1O)CCC(C)(C(=O)O)O2 (centres unmarked) [Trolox, 6-hydroxy-2,5,7,8-tetramethylchroman-2-carboxylic acid]
- ORAC (first test run, positive control): 3940 µmol/g
- ORAC (second test run, positive control): 4368 µmol/g
